Results: US20240239801A1, “PYRIMIDO[5,4,D]PYRIMIDINE COMPOUNDS, COMPOSITIONS COMPRISING THEM AND USES THEREOF” (Université de Montréal, priority 2021, published 2024)
Where two headings read alike, the source gives them in different places.

Legend:
ARAF = target: T1, ARAF (Homo sapiens, UniProt P10398); test: ARAF kinase activity assay (AlphaLISA p-MEK detection); format: biochemical; conditions: Table A
T1 sequence (P10398 310-570 limits assumed): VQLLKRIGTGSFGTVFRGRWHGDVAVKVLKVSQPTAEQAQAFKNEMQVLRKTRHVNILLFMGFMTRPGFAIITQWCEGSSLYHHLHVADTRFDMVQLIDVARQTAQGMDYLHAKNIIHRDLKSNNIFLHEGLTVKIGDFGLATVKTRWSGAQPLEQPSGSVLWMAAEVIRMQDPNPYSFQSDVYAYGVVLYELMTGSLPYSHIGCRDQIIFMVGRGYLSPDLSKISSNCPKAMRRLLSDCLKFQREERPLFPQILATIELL
Protocol: Compound preparation: solid samples of each substances in 1dram vials were suspended in DMSO (Fisher Scientific) at a stock concentration of 20 mM. Stocks were kept at −20° C. and protected from light. If solubility of the compound at 20 mM appeared to be an issue, the initial concentration of the DMSO stock was changed to 10 mM or 5 mM.
In vitro enzymatic reactions were used for evaluating compounds intrinsic activity against BRAF, CRAF and ARAF. For BRAF and CRAF, 0.375 nM of purified GST-tagged kinases (cat #B4062-10UG and cat #R1656-10UG respectively from Millipore Sigma) were incubated with 75 nM of kinase-dead MEK1 substrate (cat #40075; BPS Bioscience) in the presence of 10 μM of Ultrapure ATP (cat #V9102; Promega; part V915A) with and without the test compound in a buffer containing 50 mM HEPES pH 7.5, 10 mM MgCl2, 1 mM EDTA, 0.01% Brij-35 and 2 mM DTT. Separate reactions were performed with the MEK1 substrate and ATP as a blank control. ARAF, kinase reactions were rigorously the same with the exception that kinase concentration was raised to 3.75 nM (cat #1768-0000-1; Reaction Biology).
For compound treatment, 5 μL/well of test substance solution are placed in a 384-well proxyplate (Perkin Elmer) and mixed with 2× concentrated kinase reactions. The dilution series is selected so that nine concentrations cover a range from 100 nM to 0.01 nM. […] The final concentration of DMSO in the assay is set at 0.05%.
ARAF kinase reactions were carried out for a total of 2 hours at 30° C. and then stopped by addition of EDTA at a final concentration of 40 mM. Reactions were then detected using the AlphaLISA® SureFire® Ultra™ p-MEK ½ (Ser218/222) (PerkinElmer) kit. Reactions were performed with 5 μL of kinase reaction according to the manufacturer's specifications in 384-well proxyplates (Perkin Elmer) followed by overnight incubation of the reactions at room temperature in a humidified chamber. After completion of the detection reactions, the signals were recorded on a Synergy Neo2 plate reader (Biotek) equipped with AlphaLISA® filters. The effect of each compound dilution on the pMEK signal generated by ARAF reactions was expressed in % inhibition and calculated as follows. An internal 100% inhibition control (average of luminescence in kinase reactions comprising kinase dead MEK1 substrate alone) was included in each plate to measure of pMEK background and was subtracted from each data point. The average of DMSO (vehicle) controls (set as 0% inhibition) was also established and used to calculate % inhibition:
IC50 values were obtained by plotting the kinase inhibition values and fitting the dose-activity curves using a log(agonist) versus response−variable slope (four parameters) function using either GraphPadPrism (V7.0) or Dotmatics Screening Ultra platform. Standards included in the ARAF kinase assay were Belvarafenib (MedChem Express cat #HY-109080; CAS #1446113-23-0), LXH254 (MedChem Express cat #HY-112089; CAS #1800398-38-2) and BGB283 (cat #HY-18957; CAS #1446090-79-4).

A101D = test: Proliferation inhibition, CellTiter-Glo; format: cell-based, human; conditions: Table D-1, 3 days, read-out: A101D Prolif. EC50
Protocol: All cancer cell lines (A375, A101D, A2058, RKO, HT29 SK-MEL 30, IPC298, HepG2, HCT-116, Lovo, SW620, SW480, NCI-H358, NCI-H2122, Calu-6, NCIH2087, NCIH1755, NCIH1666 and Mewo) were obtained from ATCC and cultured in RPMI-1640 medium (Gibco) supplemented with 5% heat inactivated fetal bovine serum (FBS, Wisent) at 37° C. under 5% CO2. Cells were maintained in T175 flasks (Greiner). They were passaged by removing the culture medium, washing once in 10 mL of room temperature Phosphate Buffered Saline (PBS; Wisent) and incubating at 37° C. with 2 mL of 0.05% Trypsin (Thermo-Fisher). Trypsin was then inactivated by adding complete growth medium and the cells were then replated in a T175 culture dish at the appropriate dilution. All cell lines were routinely tested for mycoplasma contamination. Tissue type and mutational status of each cell line can be found in Table B.
CellTiter-Glo® viability analysis was conducted on cells plated in […] of complete RPMI-1640 growth medium in 96-well flat-bottomed white opaque plates (Greiner or Corning) at a density indicated in Table E (for each CCL, number of cells plated per well of a 96-well plate to perform the CellTiter-Glo® cell viability assay). The cell density in cells/cm^2 would correspond to cell number divided by the area of one well of a 96-well plate (0.32 cm^2). Cells were maintained overnight at 37° C. under 5% CO2 before treatment with compounds' dilution series for 3 days.
In a dilution series 100 μL/well of test substance dilution prepared in complete RPMI-1640 growth media was added to the cells plated initially in 100 μL of growth media. The dilution series is selected so that ten concentrations cover a range from 30 μM or 10 μM to […]. If necessary (as in the case of A375 cells, which were more sensitive to the compounds) the initial concentration of 10 μM is lowered to 1 μM and further dilution is carried out accordingly. The final concentration of DMSO in the assay is set to 0.5%.
After 3 days of incubation, the growth media were removed by aspiration and 60 μL of diluted CellTiter-Glo® reagent (10 μL CellTiter-Glo® reagent+50 μL of PBS) was added to each well. Cells were allowed to lyse and to equilibrate in CellTiter-Glo® reagent by 5 min incubation on a plate shaker followed by 10 min incubation at room temperature. Luminescence signals were then acquired on a Synergy Neo2 plate reader (Biotek).
The effect of each compound dilution on the proliferation of cancer cell lines was expressed in % inhibition and calculated as follows. An internal 100% inhibition control (1 μM of trametinib; cat. No. HY-10999; MedChem Express; CAS No. 871700-17-3) was included in each plate and used as a measure of CellTiter-Glo® signal background. The value obtained for trametinib was subtracted from each data point. The average of DMSO (vehicle) controls (set as 0% inhibition) was established and used to calculate % inhibition:
The ability of each compound to inhibit proliferation was expressed as a EC50 value obtained by plotting the effect values for each data point of a dilution series and fitting the obtained curves using a log(agonist) versus response−variable slope (four parameters) function using GraphPadPrism (V7.0) or Dotmatics Screening Ultra platform.

Compound | IC50 (ARAF) | EC50 (A101D) | EC50 (A101D; Homo sapiens, A101D, 72 h)
Cc1ccc2c(Nc3cccc(Cl)c3F)nccc2c1NC(=O)c1csc2c(N)ncnc12 [Belvarafenib, reference compound] | > 20 nM |  | 
Cc1c(F)cccc1S(=O)(=O)Nc1ccc(F)c(Nc2ncnc3cnc(-n4cc(C(=O)N(C)Cc5ccncc5)c5ccccc54)nc23)c1F [Example 98] | 10 to 20 nM | < 300 nM | 

The next lines start with results.

IC50 (ARAF) | Compound | EC50 (A101D) | EC50 (A101D; Homo sapiens, A101D, 72 h)
10 to 20 nM | O=S(=O)(Nc1ccc(F)c(Nc2ncnc3cnc(-n4cnc5c(N6CCC7(CCCO7)CC6)cccc54)nc23)c1F)c1cccc(Cl)c1Cl [Example 129] | < 300 nM | 
> 20 nM | COc1ccc(S(=O)(=O)Nc2ccc(F)c(Nc3ncnc4cnc(-n5cnc6c(N)cccc65)nc34)c2F)c(C)c1Cl [Example 112] | < 300 nM | 
< 10 nM | Cc1c(F)cccc1S(=O)(=O)Nc1ccc(F)c(Nc2ncnc3cnc(-n4cnc5c(-c6cccnc6)cccc54)nc23)c1F [Example 114] |  | < 300 nM
